From patent publication US12324845B2, “Ligands for imaging cardiac innervation” (Lantheus Medical Imaging, Inc., priority 2006, dated 2025)
Counter-ions that a name gives are not always drawn.

Biological target: T1, human norepinephrine transporter (Homo sapiens, UniProt P23975)
T1 construct: purchased Perkin-Elmer; host or cells: MDCK cells (membrane preparation)
Experiment: Norepinephrine Transporter Binding Assay ([3H]desipramine displacement, MDCK cell membranes)
Conditions: MDCK cell membrane preparation expressing human NET; [3H]desipramine 2 nM; 2 h on ice; triplicate
Description: Unless otherwise stated, all reactions were conducted under an inert atmosphere of dry nitrogen. Indicated temperatures refer to those of the reaction bath, while ambient laboratory temperature is noted as 22° C. Anhydrous dimethylformamide (DMF), dimethylsulfoxide (DMSO), acetonitrile (MCCN), pyridine, triethylamine (TEA), and diisopropylethylamine (DIEA) were obtained from Aldrich in SureSeal® bottles. Absolute ethanol was obtained from Quantum Chemical Corp. Merck silica gel, grade 9385, 230-400 mesh, 60 Å was used for flash chromatography. Ethyl acetate (EtOAc), chloroform (CHCl3), methanol (MeOH), HPLC grade acetonitrile (MeCN), dichloromethane (DCM), ethyl ether, acetone, sodium hydroxide (NaOH), and hydrochloric acid (HCl) were obtained from Baker. 1-Trityl-1H-imidazole-2-amine was prepared according to a published procedure (U.S. Pat. No. 6,130,231, incorporated by reference in its entirety). 1-Bromo-2-fluoroethane was purchased from Alfa Aesar. 3-Methoxy-4-fluorobenzonitrile was purchased from TCI. MDCK cell membranes expressing human norepinephrine transporter, and [^3H]desipramine were purchased from Perkin-Elmer. [^18F]NaF was obtained from PETNET Pharmaceutical Services (Cummings Park, Woburn, MA) on a MP1 anion exchange resin (BioRad) cartridge. Other reagents were obtained from Lancaster Synthesis, Inc., Sigma-Aldrich Chemical Co, or Fluka Chemical Corp.
Inhibitors to be tested were dissolved in incubation buffer (50 mM Tris-HCl, 10% sucrose, pH 7.4) at appropriate dilutions. The inhibitor solutions were added to the wells of a microtiter plate (40 μL/well) in triplicate. Each well of test agent (and appropriate control wells) was treated with a mixture of MDCK cell membrane preparation (22.4 μg of membrane) expressing human norepinephrine transporter (Bmax=3.7 pmol norepinephrine transporter/mg protein), and [^3H]desipramine (2 nM, 64.8 Ci/mmol) in a total volume of 0.2 mL. The resulting mixtures were incubated for 2 h on ice. A 96 well GF/C filter plate was presoaked with coating buffer (0.5% polyvinylpyrrolidine and 0.1% Tween 20) for 2 h at room temperature. The presoaked filter plate was washed with incubation buffer (6×0.2 mL). The NET reactions were transferred to the coated filter plate and filtered. The filter plate was washed (6×0.2 mL) with ice cold wash buffer (50 mM Tris-HCl, 0.9% NaCl, pH 7.4). The plate was dried overnight, incubated briefly with 25 μL scintillant, and read on a Micro Beta plate reader.

T1 sequence (P23975 whole entry): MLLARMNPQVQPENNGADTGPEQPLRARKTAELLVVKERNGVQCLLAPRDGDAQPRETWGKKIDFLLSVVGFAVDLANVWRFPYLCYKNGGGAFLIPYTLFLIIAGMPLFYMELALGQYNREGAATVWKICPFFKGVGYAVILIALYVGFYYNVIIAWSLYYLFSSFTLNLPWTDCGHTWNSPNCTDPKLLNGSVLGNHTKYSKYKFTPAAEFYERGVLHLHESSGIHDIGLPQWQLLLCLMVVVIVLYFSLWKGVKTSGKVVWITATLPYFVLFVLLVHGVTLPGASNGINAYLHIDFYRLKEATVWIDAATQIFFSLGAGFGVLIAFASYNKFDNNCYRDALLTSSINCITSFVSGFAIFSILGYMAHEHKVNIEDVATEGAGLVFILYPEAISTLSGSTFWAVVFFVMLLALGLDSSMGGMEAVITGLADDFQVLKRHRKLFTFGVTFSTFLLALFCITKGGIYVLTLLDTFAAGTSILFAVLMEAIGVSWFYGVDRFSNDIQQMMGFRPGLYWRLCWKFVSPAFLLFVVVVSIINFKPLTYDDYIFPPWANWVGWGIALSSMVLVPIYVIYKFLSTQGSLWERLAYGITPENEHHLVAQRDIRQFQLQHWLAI

Row | SMILES | NET Affinity [µM]
1 | Fc1ccc(CNc2ncc[nH]2)cc1C(F)(F)F [Example 1, N-(4-Fluoro-3-(trifluoromethyl)benzyl)-1H-imidazol-2-amine] | 17.94
2 | Cl.N=C(N)NCC(O)c1ccc(OCCF)cc1 (centres unmarked) [Example 2, 1-(2-(4-(2-fluoroethoxy)phenyl)-2-hydroxyethyl)guanidinium Chloride] | <20
3 | Cl.N=C(N)NCCc1ccc(OCCF)cc1 [Example 3, 1-(4-(2-Fluoroethoxy)phenethyl)guanidinium Chloride] | 1.45
4 | Cl.N=C1NCC(c2ccc(OCCF)cc2)N1 (centres unmarked) [Example 4, 4-(4-(2-Fluoroethoxy)phenyl)imidazolidin-2-iminium Chloride] | 7.27
5 | Cl.N=C(N)N/C=C/c1ccc(OCCF)cc1 [Example 5, (E)-1-(4-(2-Fluoroethoxy)styryl)guanidinium Chloride] | 4.10
6 | CC(N)C(O)c1cc(O)c(OCCF)c(O)c1.Cl (centres unmarked) [Example 6, 5-(2-Amino-1-hydroxypropyl)-2-(2-fluoroethoxy)benzene-1,3-diol Hydrochloride] | 102.8
7 | COc1cc(CNC(=N)N)ccc1F.Cl [Example 7, 3-Methoxy-4-fluorobenzylguanidinium Chloride] | 20.71
8 | Cl.N=C(N)NCc1ccc(OCCF)c(Br)c1 [Example 8, 3-Bromo-4-(2-fluoroethoxy)benzylguanidinium Chloride] | 5.65
9 | N=C(N)NCc1cccc(OCCF)c1 [Example 9, 3-(2-Fluoroethoxy)benzylguanidinium Trifluoroacetate] | 4.36
10 | N=C(N)NCCc1ccc(OCCF)c(Cl)c1 [Example 10, 3-Chloro-4-(2-fluoroethoxy)phenethylguanidinium Trifluoroacetate] | 1.80
11 | CNC(C)C(O)c1ccc(F)c(O)c1 (centres unmarked) [Example 11, 1-(4-Fluoro-3-hydroxyphenyl)-1-hydroxy-N-methylpropan-2-aminium Trifluoroacetate] | 54.85
